Consider 3 molecules from patent US20200230205A1, “COMPOSITIONS AND METHODS FOR TREATING MYELIN DISORDERS” (CASE WESTERN RESERVE UNIVERSITY, priority 2017, published 2020).

The test system of test [1] is oligodendrocyte progenitor cells (OPCs). Description: Ki-67 proliferation and TUNEL apoptosis of OPCs on aggrecan/laminin. It is filed as cell-based, mouse. The settings on record: 2.5 μM peptide, 2 div, laminin 1 and aggrecan 2 μg/mL, vs control. The method, then: To assess proliferation, OPCs were plated on 24-well coverslips that were precoated with PLL, 1 μg/mL laminin, and 2 μg/mL aggrecan. OPCs were treated with vehicle, 2.5 μM ISP or SISP immediately upon plating for 2 days at 37° C. Coverslips were fixed and stained using the same method described in the immunocytochemistry section with Ki-67 (550609, BD Pharmingen, 1:500) and O4 (1:10). Coverslips were imaged and counted. To assess apoptosis, OPCs were cultured in the same fashion and incubated with vehicle or 1 μg/mL LPC for 2 hours at 2 days following vehicle, 2.5 μM ISP or SISP incubation. Coverslips were then fixed with PFA and methanol then stained using APO-BrdU TUNEL assay kit (A23210, ThermoFisher) and guidelines with an O/N incubation of the primary antibody at RT. Coverslips were additionally costained with DAPI (D9542, Sigma, 1:10,000) then imaged and counted.

For a further test, the system named is MMP-10. Description: MMP-10 western blot of OPC conditioned media. The conditions noted are these: OPC CM, 2.5 μM peptide, same as vehicle. Format: cell-based, mouse. The method, then: To assess MMP-2 or 10 in OPC CM or lysates, OPCs were incubated on precoated PLL, aggrecan, and laminin as described above. OPCs were treated with vehicle, 2.5 μM ISP or SISP for 2 days at 37° C. CM was then harvested and concentrated using Milipore Ultracel YM-C centrifugal filter units at max speed (Eppendorf Centrifuge […]) for 30 minutes at 4° C. […] of concentrated CM was loaded into each lane. OPC lysates were assessed using western blot techniques described below with […] protein loaded from each group. Tissue samples or cerebellar slices or purified OPC cells were homogenized with RIPA lysis buffer and protein concentration was determined by Pierce BCA protein assay kit according to the manufacture instruction (Thermo Fisher). Then, equal amounts of protein were loaded to 15% SDS-PAGE gels, and electrophoretically transferred to PVDF membranes (Millipore). The membranes were blocked in 0.1% TPBS buffer with 5% non-fat milk for 1h at room temperature and probed with indicated primary antibodies overnight at 4° C. and followed by secondary antibody conjugated to horseradish peroxidase (HRP). […] Enhanced chemiluminescence was performed with a West Pico Kit (Thermo Fisher) and detected by FluorChem E system (ProteinSimple, USA). The density of bands was quantified using ImageJ software (NIH).
For orientation: A western blot detects proteins with antibodies after separation by electrophoresis.

A further test deals with aggrecan (CS56). Description: CSPG degradation by OPC conditioned media (CS56 spot quantification and western blot of aggrecan). It is filed as cell-based, mouse. The conditions noted are these: for aggrecan GAG digestion (CS56 immunoblot): Exo1 10 μg/mL, GM6001 25 μM or OA-Hy 100 nM with 2.5 μM ISP. As for the experimental part: (§1) CSPG gradients were prepared as described previously (Tom, V. J., et al. Studies on the Development and Behavior of the Dystrophic Growth Cone, the Hallmark of Regeneration Failure, in an In vitro Model of the Glial Scar and after Spinal Cord Injury.). 24-well glass coverslip were coated with poly-L-lysine and nitrocellulose, and a mixture of 700 μg/mL aggrecan (A1960 Sigma) and 10 μg/mL laminin (11243217001 Sigma) spotted on the coated coverslip. After drying, coated coverslips were then incubated with laminin at 37° C. for 3h. Purified OPCs were plated at a density of 10,000/coverslip and cultured in DMEM/F12 medium containing with N2, PDGF (20 ng/ml), FGF (20 ng/ml), NT-3 (5 ng/ml), CNTF (O1 ng/ml), Glutamine (200 mM). Coverslips were stained with CS-56 (C8035, Sigma, 1:500) and O4 antibodies (Hybridoma Core Cleveland Clinic, 1:10). O4-positive cells crossing the aggrecan border were counted for each spot. For CSPG gradient quantification, 1×10^6 OPCs were plated per well on PLL, 1 μg/mL laminin, and 2 μg/mL aggrecan coated 6-well plates. OPCs treated with vehicle, 2.5 μM ISP, or 2.5 μM SISP for 2 days at 37° C. CM was harvested and incubated with freshly made spots. Spots were incubated with CM for 2 days at 37° C. then stained with CS-56 and laminin (L9393, Sigma, 1:1000) antibodies and consistently imaged. Using ImageJ software (NIH), pixel intensities of the CS-56 or laminin spot rims were quantified using the same ROI. For cultured spinal cord explant, the spinal cords of cervical and thoracic of P1 mouse pups were chopped into 1-2 mm tissue pieces and transferred to the coverslip. Explants were cultured in DMEM/F12 medium with 15% FBS (Hyclone), O1 ng/ml PDGF (Sigma) and N2 supplement (Invitrogen). For ISP treatment, 2.5 uM ISP was added to the media at the time of plating. 25 μM GM6001 (2983, Tocris), 100 nM MMP-2 inhibitor (444244, Calbiochem), and/or 2.5 μM ISP or SISP was used.
CM was harvested from 1×10^6 OPCs incubated on PLL, 1 μg/mL laminin, and 2 μg/mL aggrecan coated 6-well plates. OPCs were treated with vehicle, 2.5 μM ISP, or 2.5 μM SISP in conjunction with 10 μg/mL Exo1 (ab120292, Abcam), or 25 μM GM6001 (364205, Calbiochem) for 2 days at 37° C. […] CM of each cell-strained group was incubated with 20 μg/mL aggrecan and/or 10 μg/mL laminin for 2 hours in lmL Eppendorf tubes at 37° C. As a positive control, OPC media was incubated with aggrecan and incubated in the same fashion. Western blots were then performed as described below with incubation against CS-56 and/or laminin antibodies.

Test [2] has as its system organotypic cerebellar slice cultures. Description: LPC-induced demyelination in mouse cerebellar slice cultures. The conditions noted are these: 25 μM GM6001 or 100 nM OA-Hy in conjunction with 2.5 μM ISP, 9 days. Format: cell-based. The text has this: We carried out the cerebellar slice culture method as described previously (Zhang, H., et al. Central nervous system remyelination in culture—A tool for multiple sclerosis research. Experimental Neurology 230, 138-148 (2011)). Briefly, 300 μm-thick cerebellar slices were cut from P10-12 mouse cerebellum using a Leica vibrating microtome (Leica, VT1000S) and cultured in medium containing 50% basal medium eagle medium, 25% Heat-inactivated horse serum, 25% Hank's solution, 2.5% glucose, 1% glutamine and penicillin-streptomycin. After 4 days in vitro (DIV), 0.5 mg/ml LPC were added for 17-18h to induce demyelination. Slices were then incubated with 2.5 μM ISP for 8 days. For GM6001 experiments, 25 μM GM6001 (Tocris) and/or 2.5 μM ISP or SISP was incubated for 9 days. Remyelination was examined by semi-quantitative Western blot of MBP and immunofluorescence stain of MBP and NeuF200.
Slices were fixed with 4% PFA, delipidated, and washed three times in PBS, blocked in PBS containing 0.1% Triton X-100 and 5% normal goat serum and incubated with anti-MBP (SMI-99P, Covance, 1:300), and anti-NeuF200 (N4142, Sigma, 1:250) antibodies overnight at 4° C. The slices were then washed in PBS and incubated in Alexa Fluor-conjugated secondary antibodies (1:500, invitrogen) for 2h. Slices were mounted in Vectashield mounting medium with DAPI (Vector Laboratories) and analyzed using Leica DFC500 fluorescence microscope.

The test system of test [3] is oligodendrocyte progenitor cells (OPCs). Description: CSPG gradient crossing (spot) assay, OPC migration. Format: cell-based, mouse. The conditions noted are these: 25 μM GM6001 or 100 nM OA-Hy, even in the presence of ISP. The method, then: as §1

For “GRKKRRQRRRCIREDDSLMLYALAQEKKESNMHES [SISP, scrambled ISP control peptide, reference compound]”, the “OPC proliferation (Ki67)” value in test [1] is listed as “not significantly changed”. In the test with MMP-10, the “MMP-10 secretion, western blot” value is reported as “equally low amounts”.

Regarding `COC(=O)c1ccccc1NC(=O)c1ccc(F)cc1` [Exo1], the “aggrecan GAG digestion (CS56 immunoblot)” value in the test on aggrecan (CS56) was “partially rescued aggrecan GAG digestion”.

Regarding `CNC(=O)[C@H](Cc1c[nH]c2ccccc12)NC(=O)[C@@H](CC(=O)NO)CC(C)C` [GM6001], the “colocalization of MBP and neurofilament+ axons” value in test [2] was “decreased”. Moreover, the “OPC entry into the CSPG-rich area” value in test [3] is listed as “effectively halted OPC entry”. The CS56 spot degradation entry in the test on aggrecan (CS56) (25 μM GM6001 or 100 nM OA-Hy with 2.5 μM ISP) was “additionally rescued CS56 spot degradation”. Besides, in the test on aggrecan (CS56), the “aggrecan GAG digestion (CS56 immunoblot)” value is recorded as “partially rescued”.
